Measurements published in patent US20090054328A1, “Reagents and Methods for Modulating Gene Expression Related to Hypertension” (The Board of Trustees of the University of Illinois, priority 2005, published 2009).

Tests used:
SHR = test: Systolic blood pressure (tail-cuff) in SHR, drug given continuously for 3 weeks by osmotic pump; type: in vivo, rat; settings: continuous 3 weeks
Procedure: The importance of regulating MLCK expression by Ras signaling in vivo was further investigated by treating SHR with U0126 continuously for 3 weeks. U0126 is a specific inhibitor MEK (Favata et al., 1998J. Biol. Chem. 273: 18623-18632), an upstream regulator of ERK in the Ras signaling pathway (Chien & Hoshijima, 2002, Id.). […] In these experiments, Systolic blood pressure (SBP) was measured using tail-cuff sphygmomanometry (IITC Incorporated/Life Sciences Institute, Woodland Hills Calif.). Drugs were delivered via an osmotic pump (DURECT Corporation, Cupertino, Calif.) implanted subcutaneously in the shoulder. The pumps (having a 2 mL capacity at a delivery rate of 2.45 μL/hour) were filled with 13.5 mM U0126 (BIOMOL Research Laboratories, Plymouth Meeting, Pa.) dissolved in 50% DMSO or vehicle alone. Three weeks later, rats were sacrificed and aortas were removed. Some vessels were processed for histology, while other tissue was immediately placed in ice-cold acetone containing 10% trichloroacetic acid (TCA) and 10 mM dithiothreitol (DTT). Endothelial cells were removed by gently rubbing the inside of the vessels with a cell lifter and connective tissue was removed by dissection. The cleaned vessels were then frozen on dry ice and stored at −80° C. for biochemical analysis.
Another experiment was conducted to determine if inhibiting Ras signaling could decrease blood pressure in SHR.

WKY rats = settings: age-matched WKY rats, U0126 3 weeks; returned to baseline within 2 weeks of treatment
Excerpt: The importance of regulating MLCK expression by Ras signaling in vivo was further investigated by treating SHR with U0126 continuously for 3 weeks. U0126 is a specific inhibitor MEK (Favata et al., 1998J. Biol. Chem. 273: 18623-18632), an upstream regulator of ERK in the Ras signaling pathway (Chien & Hoshijima, 2002, Id.). Rats that were 8 weeks old at the start of treatment were studied because blood pressure increases and blood vessels become thicker between 8 and 12 weeks of age (Yamori, 1984, Id). In these experiments, Systolic blood pressure (SBP) was measured using tail-cuff sphygmomanometry (IITC Incorporated/Life Sciences Institute, Woodland Hills Calif.). Drugs were delivered via an osmotic pump (DURECT Corporation, Cupertino, Calif.) implanted subcutaneously in the shoulder. The pumps (having a 2 mL capacity at a delivery rate of 2.45 μL/hour) were filled with 13.5 mM U0126 (BIOMOL Research Laboratories, Plymouth Meeting, Pa.) dissolved in 50% DMSO or vehicle alone. Three weeks later, rats were sacrificed and aortas were removed. Some vessels were processed for histology, while other tissue was immediately placed in ice-cold acetone containing 10% trichloroacetic acid (TCA) and 10 mM dithiothreitol (DTT). Endothelial cells were removed by gently rubbing the inside of the vessels with a cell lifter and connective tissue was removed by dissection. […]

[1] = test system: ERK-P, MLCK expression and MLC-P
Procedure: Cells or pieces of blood vessels were extracted in buffer containing 9 M urea, 10 mM DTT and 20 mM Tris, pH 8.0. Protein concentrations were measured using the Bradford Protein Assay (BioRad, Richmond, Calif.) and equivalent amounts of protein were subjected to SDS-PAGE or urea-glycerol PAGE, Proteins separated by SDS-PAGE were transferred to nitrocellulose and probed with an antibody to MLCK (de Lanerolle et al., 1981, Proc. Natl. Acad. Sci. 78: 4738-4742), the broad specificity C4 antibody to actin (Lessard, 1988, Cell. Motil. Cytoskeleton. 10: 349-362), antibodies to Rho A or phosphorylated MPasel (Santa Cruz Biotechnology, Santa Cruz, Calif.) or an antibody to phosphorylated ERK½ (Cell Signaling Technology, Beverly, Mass.). Urea-glycerol PAGE was used to separate the unphosphorylated and phosphorylated forms of MLC20, which was then transferred to nitrocellulose and probed with an antibody to MLC20, wherein the stoichiometry of phosphorylation (mol PO4/mol MLC20) was calculated as previously described (Obara et al., 1989, Pflugers. Arch. 414: 134-138). Ail immunoreactive bands were visualized using enhanced chemiluminescence (Amersham Pharmacia Biotech, Piscataway, N.J.) and quantified densitometrically.
(§1) The importance of regulating MLCK expression by Ras signaling in vivo was further investigated by treating SHR with U0126 continuously for 3 weeks. U0126 is a specific inhibitor MEK (Favata et al., 1998J. Biol. Chem. 273: 18623-18632), an upstream regulator of ERK in the Ras signaling pathway (Chien & Hoshijima, 2002, Id.). Rats that were 8 weeks old at the start of treatment were studied because blood pressure increases and blood vessels become thicker between 8 and 12 weeks of age (Yamori, 1984, Id). In these experiments, Systolic blood pressure (SBP) was measured using tail-cuff sphygmomanometry (IITC Incorporated/Life Sciences Institute, Woodland Hills Calif.). Drugs were delivered via an osmotic pump (DURECT Corporation, Cupertino, Calif.) implanted subcutaneously in the shoulder. The pumps (having a 2 mL capacity at a delivery rate of 2.45 μL/hour) were filled with 13.5 mM U0126 (BIOMOL Research Laboratories, Plymouth Meeting, Pa.) dissolved in 50% DMSO or vehicle alone. Three weeks later, rats were sacrificed and aortas were removed. Some vessels were processed for histology, while other tissue was immediately placed in ice-cold acetone containing 10% trichloroacetic acid (TCA) and 10 mM dithiothreitol (DTT). Endothelial cells were removed by gently rubbing the inside of the vessels with a cell lifter and connective tissue was removed by dissection. The cleaned vessels were then frozen on dry ice and stored at −80° C. for biochemical analysis.
ERK-P, MLCK expression and MLC-P were assayed in U0126 SHR as described above.

[2] = test system: medial smooth muscle layer of aortas and mesenteric arteries
Excerpt: as §1
Blood vessels were also assessed histologically. […] Cross-sections (5 microns thick) were cut, deparaffinized and stained with Gomort's Trichrome. Nuclei were visualized with Weigert's iron hematoxylin. The thickness of the medial layer was quantified using NIH ImageJ 1.32 software (National Institutes of Health, Bethesda, […].).

MLCK expression in VSMC = test: Blocking Ras signaling in vitro in VSMC: MLCK expression and MLC-P by Western blot; type: cell-based, rat
Procedure: In view of the results obtained in Example 3 above, the effect of modulating SRF expression or activity on MLCK expression was assayed. To inhibit SRF activity, an adenovirus (AdSRF-S) lacking exons 4 and 5 was used to express a truncated, dominant negative form of SRF in cells (Davis et al., 2002, Id). Control cells were infected with a virus expressing GFP (AdGFP) at the same multiplicity of infection. In these experiments, VSMC were explanted from aortas of 4 to 7 weeks old SHR or WKY rats as previously described (Ross, 1971, J. Cell. Biol. 50: 172-186) and cultured in Dulbeccos's modified Eagles's medium (DMEM) with 10% fetal bovine serum (FBS). VSMC from WKY rats grown in 6-well plates (90-100% confluent) were infected for 2 hours with either an adenovirus that express a short form of SRF (AdSRF-S) (Davis et al., 2002, Id) or a control virus that expresses GFP (AdGFP). The viruses were washed out and the cells were grown as described above for 48 hours. VSMC were harvested and cell lysates were subjected to western blot analyses.
Dominant negative Ras decreased MLCK mRNA expression in VSMC from SHR (FIG. 4C, inset). To investigate downstream events of Ras signaling, VSMC from SHR were treated with antisense oligonucleotides to ERK, a known member of the Ras signaling pathway. […]

[3] = U0126-treated SHR compared to control

N#CC(=C(/N)Sc1ccccc1N)/C(C#N)=C(\N)Sc1ccccc1N [U0126]
systolic blood pressure at the end of the 3-week treatment period (SHR; SHR 8 weeks old at start, 13.5 mM U0126 in osmotic pump, vehicle 208.9±4.7): 150.4±4.1 mmHg
systolic blood pressure at the end of the 3-week treatment period (SHR; SHR 16 weeks old at start, osmotic pump, vehicle 221.6): 181.4±0.89 mmHg
SBP in normotensive WKY rats (WKY rats): transient decrease
RhoA expression in aortas ([1]; SHR after U0126 treatment): No significant differences
phosphorylated myosin phosphorylase-1 (MPasel-P) in aortas ([1]; SHR after U0126 treatment): No significant differences
ERK phosphorylation (ERK-P) in blood vessels [1, 3]: decreased
MLC phosphorylation (MLC-P) in blood vessels [1, 3]: decreased
MLCK expression in blood vessels [1, 3]: decreased
medial smooth muscle layer in aortas and mesenteric arteries ([2]; SHR receiving U0126 compared to controls): thinner
total medial area of aortas ([2]; SHR, 3 weeks U0126, NIH ImageJ, vehicle 117.8±3.69): 66.4±2.79 relative units
total medial area of mesenteric arteries ([2]; SHR, 3 weeks U0126, mean from two animals, vehicle 26.88): 16.0
MLCK expression in VSMC (MLCK expression in VSMC): decreased
